# Experimental data: BindingDB's records for patent US10954228 (The Trustees of The University of Pennsylvania, 2021)
# Biological target: L-lactate dehydrogenase A chain (Homo sapiens, UniProt P00338)
# Test: Biochemical Assay
# Method: Test compounds were placed in a Greiner Bio-One (Monroe, N.C.) 1536-well black solid bottom assay plate. 200 millimolar (mM) Tris HCl, pH 7.4, 100 micromolar (μM) EDTA and 0.01% TWEEN-20, final concentration, was used as the assay buffer. The LDHA reagent was 2 nanomolar (nM) Human LDHA (Meridian Life Science, Inc., Memphis, Tenn.), final concentration, in assay buffer. The substrate reagent was 0.06 mM NADH and 0.2 mM sodium pyruvate, final concentration, in assay buffer. The resazurin/diaphorase coupling reagent was 0.037 mM resazurin and 0.133 milligrams per milliliter (mg/mL) diaphorase, final concentration, in assay buffer. The inhibition of LDHA activity was measured by fluorescence emission.
row,IC50 [nM],SMILES
1,< 100,"CCC#Cc1cc(-c2nn(-c3nc(C(=O)O)cs3)c(CC3CC3)c2Cc2ccc([S+](N)(=O)[O-])c(F)c2)ccc1F [US10954228, Compound 109]"
2,100 to 1000,"Cc1ccc(C#Cc2cccc(-c3nn(-c4nc(C(=O)O)cs4)c(C4CC4C4CC4)c3Cc3ccc([S+](N)(=O)[O-])c(F)c3)c2)s1 (stereo not given) [US10954228, Compound 134]"
3,< 100,"NS(=O)(=O)c1ccc(Cc2c(-c3cccc(C(=O)N4CCCC4)c3)nn(-c3nc(C(=O)O)cs3)c2CC2CC2)cc1 [US10954228, Compound 145]"
4,< 100,"CC(C)(C)NC(=O)c1cc(-c2nn(-c3nc(C(=O)O)cs3)c(CC3CC3)c2Cc2ccc([S+](N)(=O)[O-])c(F)c2)ccc1F [US10954228, Compound 147]"
5,< 100,"CC(C)(C)NC(=O)c1cccc(-c2nn(-c3nc(C(=O)O)cs3)c(CC3CC3)c2Cc2ccc([S+](N)(=O)[O-])cc2)c1 [US10954228, Compound 188]"
6,< 100,"CN(C)c1ccc(-c2cc(-c3nn(-c4nc(C(=O)O)cs4)c(CC4CC4)c3Cc3ccc(S(N)(=O)=O)c(F)c3)ccc2F)cc1 [US10954228, Compound 190]"
7,< 100,"NS(=O)(=O)c1ccc(Cc2c(-c3ccc(F)c(-c4cccc(F)c4)c3)nn(-c3nc(C(=O)O)cs3)c2CC2CC2)cc1F [US10954228, Compound 196]"
8,< 100,"CC(C)c1cnc(-c2cccc(-c3nn(-c4nc(C(=O)O)cs4)c(CC4CC4)c3Cc3ccc(S(N)(=O)=O)c(F)c3)c2)nc1 [US10954228, Compound 216]"
9,< 100,"CC(C)c1ccc(-c2cccc(-c3nn(-c4nc(C(=O)O)cs4)c(CC4CC4)c3Cc3ccc(S(N)(=O)=O)c(F)c3)c2)nc1 [US10954228, Compound 218]"

row,SMILES,IC50 [nM]
1,"CC(C)c1ccc(-c2cc(-c3nn(-c4nc(C(=O)O)cs4)c(CC4CC4)c3Cc3ccc(S(N)(=O)=O)c(F)c3)ccc2F)cc1 [US10954228, Compound 199]",< 100
